# From PubChem BioAssay (NCI)
# Several values for one entry are separate records, joined by “and”; a condition that tells them apart may be missing. Equal values may be shown once.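 Grown in 96-well plates, cells were treated for 48 hours with each compound at five concentrations. Insufficient inhibition: endpoint recorded as highest concentration tested. At the GI50, growth is halved. The concentration for full growth arrest is given as TGI.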
# What was measured:
# Assay in all cases: NCI tumour cell line growth inhibition, 48 h
# 786-0 renal = tested on: 786-0 renal
# HT29 colon = tested on: HT29 colon
# NCI-H226 lung = tested on: NCI-H226 lung
# NCI-H460 lung = tested on: NCI-H460 lung
# OVCAR-4 ovarian = tested on: OVCAR-4 ovarian
# RXF 393 renal = tested on: RXF 393 renal
# SF-268 CNS = tested on: SF-268 CNS
# U251 CNS = tested on: U251 CNS
# UO-31 renal = tested on: UO-31 renal
# M19-MEL melanoma = tested on: M19-MEL melanoma
Compound,GI50 (786-0 renal),TGI (786-0 renal) [µM],GI50 (HT29 colon),TGI (HT29 colon) [µM],GI50 (NCI-H226 lung),TGI (NCI-H226 lung) [µM],GI50 (NCI-H460 lung),TGI (NCI-H460 lung) [µM],GI50 (OVCAR-4 ovarian),TGI (OVCAR-4 ovarian),GI50 (RXF 393 renal),TGI (RXF 393 renal),GI50 (SF-268 CNS),TGI (SF-268 CNS) [µM],GI50 (U251 CNS),TGI (U251 CNS) [µM],GI50 (UO-31 renal),TGI (UO-31 renal),TGI (M19-MEL melanoma) [µM]
COC1=CC(=O)c2nc(-c3ccncc3)[nH]c2C1=O,> 100 µM,> 100,> 100 µM,> 100,> 100 µM,> 100,> 100 µM,> 100,45.3 µM,> 100 µM,> 100 µM,> 100 µM,> 100 µM,> 100,> 100 µM,> 100,86.7 µM,> 100 µM,
CC(C)CCC[C@@H](C)[C@H]1CC[C@H]2[C@@H]3CC=C4C[C@@H](C(C(=O)O)C(=O)O)CC[C@]4(C)[C@H]3CC[C@]12C,0.288 µM,2.51,0.224 µM,1.06,0.209 µM,0.622,0.16 µM,0.497,0.207 µM,4.35 µM,0.192 µM,0.662 µM,0.157 µM,1.65,0.129 µM,0.408,0.137 µM,0.467 µM,
COc1ccc2c(c1)/C(=C/c1c(C)nc3sc(C)nn13)C(=O)N2,6.08 µM,> 100,0.451 µM,> 100,> 28.4 µM,> 100,1.09 µM,> 32.6,14.7 µM,> 100 µM,17.6 µM,> 100 µM,3.06 µM,> 50.5,4.08 µM,> 100,5.23 µM,> 100 µM,
CCN(CCO)CC1CCCC2CCCCC21 (stereo not given),,> 100,,> 100,,> 100,,> 100,,> 100 µM,,> 100 µM,,> 100,,> 100,,> 100 µM,
Cn1cc(C2=C(c3cn(C)c4ncccc34)C(=O)NC2=O)c2ccccc21,8.72 µM,> 25,6.47 µM,> 24.1,5.45 µM,16.5,9.96 µM,> 25,17.8 µM,> 25 µM,3.8 µM,10.7 µM,9.13 µM,> 25,7.27 µM,> 25,5.68 µM,> 19.8 µM,
N#CCCN(CCC#N)c1ccc(/C=C2\N=C(c3cc([N+](=O)[O-])ccc3Cl)OC2=O)cc1,,> 100,,> 100,,44,,> 100,,78.6 µM,,,,> 100,,32.1,,> 100 µM,45
O=C(/C=C/C12c3ccccc3C(c3ccccc31)C1C(=O)NC(=O)C12)c1ccncc1 (stereo not given),1.94 µM,4.76,1.96 µM,4.35,2.44 µM,6.98,2.16 µM,4.76,2.65 µM,9.7 µM,1.74 µM,3.27 µM,2.46 µM,8.48,1.62 µM,3.34,1.48 µM,4.8 µM,
COC1=CC(c2ccc[nH]2)=N/C1=C\c1[nH]c(C)c(C(=O)OC(C)C)c1C,0.0476 µM,1.03,0.0236 µM,0.439,0.0795 µM,1.28,0.0269 µM,1.63,0.0531 µM,4.62 µM,0.0584 µM,1.03 µM,0.0608 µM,5.25,0.0355 µM,0.82,0.0494 µM,0.175 µM,
CCC(CO)Nc1nc2ccc(Cl)cc2c2ccccc12 (stereo not given),7.37 µM,20.1,4.58 µM,15.6,11.4 µM,31.7,3.93 µM,14.8,11.9 µM,25.5 µM,2.3 µM,5.93 µM,10.7 µM,23.4,5.18 µM,18.3,4.01 µM,16.3 µM,
Cc1nc2ccccc2c(N)c1-c1cc(C)c2c(C)nc3ccccc3c2n1,1.16 µM,2.45,0.749 µM,2.52,1.44 µM,2.94,0.329 µM,1.17,0.831 µM,2.4 µM,0.182 µM,0.737 µM,0.628 µM,2.08,0.288 µM,0.959,0.78 µM,2.26 µM,
COC1CCC(N2C(=O)CNc3ncc(-c4ccc(C(C)(C)O)nc4)nc32)CC1 (stereo not given),0.962 µM and 0.243 µM,> 32.1,1.83 µM and 0.472 µM,> 38.4,0.305 µM and 0.226 µM,> 41.8,0.455 µM and 0.113 µM,> 46,0.568 µM and 0.12 µM,> 7.88 µM and 1.07 µM,0.373 µM and 0.187 µM,3.66 µM and 2.32 µM,1.97 µM and 0.356 µM,> 41.5,1.41 µM and 1.06 µM,> 33.4,0.199 µM and 0.0768 µM,3.08 µM and 10.5 µM,
O=C1CC(c2ccc3c(c2)OCO3)Nc2ccccc21 (stereo not given),8.11 µM,40.2,7.76 µM,33.1,24.6 µM,> 88,9.02 µM,33.7,12.2 µM,56.7 µM,11.7 µM,28.3 µM,10.4 µM,35.6,8.46 µM,24.7,5.9 µM,19.4 µM,
CC1=C(C(=O)NCc2ccccc2)C(/C=C/c2ccccc2)C(C(=O)NCc2ccccc2)=C(C)N1,,> 100,,> 100,,> 100,,> 100,,> 100 µM,,> 100 µM,,> 100,,,,> 100 µM,> 100
C=C1C(=O)C23CC1CCC2C12CO[C@@H]4OCC(C)(CC[C@@H]1OC3=O)C42 (stereo not given in full),,5.71,,10.3,,38.4,,17.5,,,,6.72 µM,,12.7,,27.4,,23.6 µM,19.6
Cc1nc2ccccc2c(=O)n1-c1ccccc1I,,> 100,,> 100,,> 100,,> 100,,> 100 µM,,,,> 100,,> 100,,> 100 µM,> 100
